Data on 17 compounds can be found in patent US20120232070A1, “Use of Indole Derivatives as Nurr-1 Activators for the Application Thereof as a Medicament for the Treatment of Parkinson's Disease” (Laboratoires Fournier SA, priority 2009, published 2012).

Data set [1] concerns the target hNurr1_RXRαFL (NURR1/RXRα heterodimer) (Homo sapiens, UniProt P19793+P43354). The data set can be described thus: Transactivation assay in Cos-7 cells, NURR-1-Gal4 / RXRα, luciferase reporter. Type of data set: cell-based. The conditions noted are these: for Emax: COS-7, read-out: hNurr1_RXRαFL Eff (%), efficacy in % relative to the reference XCT0135908 at 2·10^−5 M (=100%); for pEC50: Cos-7 cells, overnight incubation. Put shortly: (§1)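 Efficiency is given as a percentage of the induction produced by 2·10^−5 M XCT0135908 (100%), measured from heterodimer baseline. Read-out was luciferase after overnight exposure to compounds (10^−4–3·10^−10 M final) in Cos-7 cells transfected with NURR-1-Gal4, RXRα or RXRγ, and a Gal4 luciferase reporter.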
A general note: A reporter such as luciferase makes a cellular process visible.

Data set [2] addresses hNurr1_RXRγFL (NURR1/RXRγ heterodimer) (Homo sapiens, UniProt P43354+P48443). As to the kind of experiment: Transactivation assay in Cos-7 cells, NURR-1-Gal4 / RXRγ, luciferase reporter. It is filed as cell-based. The conditions noted are these: for Emax: COS-7, read-out: hNurr1_RXRγFL Eff (%), efficacy in % relative to the reference XCT0135908 at 2·10^−5 M (=100%); for pEC50: Cos-7 cells, overnight incubation. In a few lines:
as §1

What is called pEC50 is the EC50 on a negative log10 scale, so that one unit is a factor of ten. The term melting point denotes the temperature, or range, at which the solid turns liquid.

pEC50: −log10 of the molar value.

hNurr1_RXRαFL (NURR1/RXRα heterodimer), sequence (P19793 whole entry, the tested form may be a part): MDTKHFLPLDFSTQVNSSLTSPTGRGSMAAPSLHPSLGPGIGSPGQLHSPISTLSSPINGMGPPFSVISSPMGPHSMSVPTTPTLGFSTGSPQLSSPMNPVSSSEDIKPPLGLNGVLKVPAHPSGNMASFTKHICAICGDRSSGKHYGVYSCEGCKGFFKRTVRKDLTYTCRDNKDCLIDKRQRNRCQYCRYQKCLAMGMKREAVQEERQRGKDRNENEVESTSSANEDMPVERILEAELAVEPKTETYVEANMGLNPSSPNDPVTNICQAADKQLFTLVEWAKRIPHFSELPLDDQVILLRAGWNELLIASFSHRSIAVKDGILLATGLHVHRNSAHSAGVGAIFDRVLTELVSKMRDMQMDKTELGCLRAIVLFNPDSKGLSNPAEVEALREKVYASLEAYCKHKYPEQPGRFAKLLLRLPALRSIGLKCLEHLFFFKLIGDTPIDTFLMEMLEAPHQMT
hNurr1_RXRαFL (NURR1/RXRα heterodimer), sequence (P43354 328-598): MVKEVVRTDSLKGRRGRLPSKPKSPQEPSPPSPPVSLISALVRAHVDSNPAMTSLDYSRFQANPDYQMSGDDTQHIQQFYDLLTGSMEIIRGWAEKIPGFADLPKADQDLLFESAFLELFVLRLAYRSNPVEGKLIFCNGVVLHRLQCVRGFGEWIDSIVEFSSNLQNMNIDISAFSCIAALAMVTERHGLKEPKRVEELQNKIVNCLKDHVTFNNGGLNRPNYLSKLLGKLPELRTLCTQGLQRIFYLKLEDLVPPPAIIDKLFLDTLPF
hNurr1_RXRγFL (NURR1/RXRγ heterodimer), sequence (P43354 328-598): as above
hNurr1_RXRγFL (NURR1/RXRγ heterodimer), sequence (P48443 whole entry, the tested form may be a part): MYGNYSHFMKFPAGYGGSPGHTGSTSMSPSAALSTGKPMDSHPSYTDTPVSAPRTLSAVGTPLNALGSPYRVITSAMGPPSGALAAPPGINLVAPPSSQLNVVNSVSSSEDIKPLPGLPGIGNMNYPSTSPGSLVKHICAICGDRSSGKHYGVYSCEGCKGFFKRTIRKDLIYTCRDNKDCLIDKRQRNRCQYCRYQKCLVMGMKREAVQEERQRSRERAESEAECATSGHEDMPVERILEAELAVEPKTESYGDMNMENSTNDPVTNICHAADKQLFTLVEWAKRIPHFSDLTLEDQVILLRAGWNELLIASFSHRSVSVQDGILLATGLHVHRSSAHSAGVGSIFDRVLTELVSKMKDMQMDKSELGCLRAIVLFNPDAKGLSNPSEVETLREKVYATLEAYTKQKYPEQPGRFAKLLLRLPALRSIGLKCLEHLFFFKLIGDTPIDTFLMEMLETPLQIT

`CC(C)c1ccc(S(=O)(=O)n2c(Cc3ccc(C(=O)O)c(F)c3)cc3cc(C(F)(F)F)ccc32)cc1` [Example 2, 2-fluoro-4-[[1-[[4-(1-methylethyl)phenyl]sulfonyl]-5-(trifluoromethyl)-1H-indol-2-yl]methyl]benzoic acid]: the melting point was found to be 197 °C. Besides, in data set [1], the Emax is 63% and the pEC50 is 6.18. Besides, in data set [2], the Emax is 43% and the pEC50 was 6.14.
The corresponding values for `CC(C)(C)c1cccc(S(=O)(=O)n2c(Cc3ccc(C(=O)O)c(O)c3)cc3cc(C(F)(F)F)ccc32)c1` [Example 56] are 129 °C, 82%, 5.94, 51% and 6.38.
For `CC(C)(C)c1cccc(S(=O)(=O)n2c(Cc3ccc(C(=O)O)cc3F)cc3cc(C(F)(F)F)ccc32)c1` [Example 67, 4-[[1-[[3-(1,1-dimethylethyl)phenyl]sulfonyl]-5-trifluoromethyl-1H-indol-2-yl]methyl]-3-fluorobenzoic acid], the melting point amounted to 177 °C. In data set [1], the Emax turned out to be 73% and the pEC50 is 7.55. In addition, in data set [2], the Emax was 75% and the pEC50 is 7.04.
In the same order, the values of `Cc1c(Cc2ccc(C(=O)O)s2)n(S(=O)(=O)c2cccc(C(C)(C)C)c2)c2ccc(C(F)(F)F)cc12` [Example 85, 5-[[1-[[3-(1,1-dimethylethyl)-phenyl]sulfonyl]-3-methyl-5-trifluoromethyl-1H-indol-2-yl]methyl]-thiophene-2-carboxylic acid] are 171 °C, 87%, 7.28, 73% and 6.94.
For `CN1CCOc2ccc(S(=O)(=O)n3c(Cc4ccc(F)c(C(=O)O)c4)cc4cc(C(F)(F)F)ccc43)cc21` [Example 212, 3-[[1-[[4-methyl-3,4-dihydro-2H-benzo[1,4]oxazin-6-yl]-sulfonyl]-5-trifluoromethyl-1H-indol-2-yl]methyl]-6-fluorobenzoic acid], in data set [1], the Emax is 80% and the pEC50 is 7.72. Besides, in data set [2], the Emax stood at 81% and the negative-log EC50 (pEC50) was 7.40.
The corresponding values for `O=C(O)c1cncc(Cc2cc3cc(Cl)ccc3n2S(=O)(=O)c2ccc3c(c2)OCCO3)c1` [Example 213, 3-[[1-[(2,3-dihydro-benzo[1,4]dioxin-6-yl)sulfonyl]-5-chloro-1H-indol-2-yl]methyl]-5-pyridine carboxylic acid] are 45%, 5.52, 31% and under 5.00.
For `O=C(O)c1ccc(F)c(Cc2cc3cc(C(F)(F)F)ccc3n2S(=O)(=O)c2ccc3c(c2)OCCO3)c1` [Example 214, 3-[[1-[(2,3-dihydro-benzo[1,4]dioxin-6-yl)sulfonyl]-5-trifluoromethyl-1H-indol-2-yl]methyl]-4-fluorobenzoic acid], in data set [1], the Emax came out at 75% and the pEC50 is 6.17. For the same compound, in data set [2], the Emax came to 55% and the pEC50 was 6.09.
`CC(C)(C)c1cccc(S(=O)(=O)n2c(C(F)c3ccc(C(=O)O)cc3)cc3cc(C(F)(F)F)ccc32)c1` (stereo not drawn) [Example 217, 4-[[1-[[3-(1,1-dimethylethyl)phenyl]sulfonyl]-5-(trifluoromethyl)-1H-indol-2-yl]fluoromethyl]benzoic acid]: the Emax turned out to be 83% in data set [1] and 80% in data set [2]. The negative-log EC50 (pEC50) was 6.83 in data set [1] and 6.45 in data set [2].
As to `CC(C)(C)c1cccc(S(=O)(=O)n2c(C(=O)c3ccc(C(=O)O)cc3)cc3cc(C(F)(F)F)ccc32)c1` [Example 219], the Emax in data set [1] was 57%; in data set [2] it was 32%. Further, the negative logarithm of the EC50 (pEC50) in data set [1] is 5.95; in data set [2], 5.49.
In the same order, the values of `CC(C)(C)c1cccc(S(=O)(=O)n2c(Cc3ccc(-c4nn[nH]n4)cc3)cc3cc(C(F)(F)F)ccc32)c1` [Example 221, 4-[1-[3-(1,1-dimethylethyl)phenyl]sulfonyl]-5-(trifluoromethyl)-1H-indol-2H-tetrazol-5-yl-benzyl] are 66%, 57%, 6.72 and 6.79.
With `CC(C)(C)c1cccc(S(=O)(=O)n2c(Cc3ccc(-c4noc(=O)[nH]4)cc3)cc3cc(C(F)(F)F)ccc32)c1` [Example 222, 3-[[4-[1-[[3-(1,1-dimethylethyl)phenyl]sulfonyl]-5-(trifluoromethyl)-1H-indol-2-yl]methyl]-phenyl]-4H-[1,2,4]oxadiazol-5-one], in data set [1], the Emax turned out to be 62% and the pEC50 is 6.44. Also, in data set [2], the Emax was 55% and the pEC50 was 6.17.
In the same order, the values of `CC(C)(C)c1cccc(S(=O)(=O)n2c(Cc3ccc(C=C4SC(=S)NC4=O)cc3)cc3cc(C(F)(F)F)ccc32)c1` [Example 223] are 72%, 5.88, 30% and 5.47.
In the same order, the values of `CC(C)(C)c1cccc(S(=O)(=O)n2c(Cc3ccc(-c4n[nH]c(=O)o4)cc3)cc3cc(C(F)(F)F)ccc32)c1` [Example 226, 5-[4-[[1-[[3-(1,1-dimethylethyl)phenyl]sulfonyl]-5-(trifluoromethyl)-1H-indol-2-yl]methyl]-phenyl]-3H-[1,3,4]oxadiazol-2-one] are 82%, 6.33, 70% and under 5.00.
Consider `CC(C)(C)c1cccc(S(=O)(=O)n2c(Cc3ccc(CNS(C)(=O)=O)cc3)cc3cc(C(F)(F)F)ccc32)c1` [Example 227, N-[4-[[1-[[3-(1,1-dimethylethyl)phenyl]sulfonyl]-5-(trifluoromethyl)-1H-indol-2-yl]methyl]benzyl]-methanesulfonamide], for which, in data set [1], the Emax is 73% and the pEC50 was 6.66. Further, in data set [2], the Emax came out at 86% and the negative logarithm of the EC50 (pEC50) is 6.50.
Consider `CC(C)(C)c1cccc(S(=O)(=O)n2c(Cc3ccc(C4=NOC(=O)C4)cc3)cc3cc(C(F)(F)F)ccc32)c1` [Example 228, 3-[4-[[1-[[3-(1,1-dimethylethyl)phenyl]sulfonyl]-5-(trifluoromethyl)-1H-indol-2-yl]methyl]-phenyl]-4H-isoxazol-5-one], for which, in data set [1], the Emax is 90% and the pEC50 is 6.95. In data set [2], the Emax came to 63% and the negative-log EC50 (pEC50) was 6.47.
Take `CC(C)(C)c1cccc(S(=O)(=O)n2c(Cc3ccc(C(=O)NS(=O)(=O)c4ccccc4)cc3)cc3cc(C(F)(F)F)ccc32)c1` [Example 229, N-[4-[[1-[[3-(1,1-dimethylethyl)phenyl]sulfonyl]-5-(trifluoromethyl)-1H-indol-2-yl]methyl]benzoyl]-benzenesulfonamide]: the Emax was found to be 60% in data set [1] and 70% in data set [2]. The negative logarithm of the EC50 (pEC50) in data set [1] is 6.80; in data set [2], 6.52.
Consider `CC(C)(CO)c1cccc(S(=O)(=O)n2c(Cc3ccc(C(=O)O)cc3)cc3cc(C(F)(F)F)ccc32)c1` [Example 231, 4-[[1-[[3-(2-hydroxy-1,1-dimethylethyl)phenyl]sulfonyl]-5-(trifluoromethyl)-1H-indol-2-yl]methyl]benzoic acid], for which the Emax in data set [1] stood at 81%; in data set [2], 62%. Also, the negative logarithm of the EC50 (pEC50) in data set [1] is 7.19; in data set [2], 6.79.
